Measured values reported in US7858621B2 (Amorepacific Corporation, priority 2006, dated 2010).

These compounds were tested against T1, vanilloid receptor (Rattus norvegicus, UniProt O35433) (assay: 45Ca influx test in cultured neonatal rat DRG neurons, inhibition of capsaicin response). Details: neonatal rat DRG neurons, capsaicin 0.5 μM, 45Ca influx; read-out: Antagonist Calcium Uptake Test (IC50).
T1 construct: DRG nerve cells from the primary culture of 2 days were equilibrated; endogenous in cells; host or cells: primary culture of dorsal root ganglion neurons from neonatal SD rats
Type: cell-based
Description: 1) Separation of Spinal Dorsal Root Ganglia (DRG) in Newborn Rats and Primary Culture Thereof
Neonatal (2-3 day old or younger than 2-3 day old) SD rats were put in ice for 5 minutes to anesthetize and disinfected with 70% ethanol. […] The DRG were incubated sequentially at 37° C. for 30 mins in 200 U/ml collagenase and 2.5 mg/ml trypsin, separately. The ganglia were washed twice with DME/F12 medium supplemented with 10% horse serum, triturated through a fire-polished Pasteur pipette, filtered through Nitex 80 membrane to obtain single cell suspension and the suspension was washed once more. This was subjected to centrifugation, then resuspended in cell culture medium at certain level of cell density. As the cell culture medium, DME/F12 medium supplemented with 10% horse serum was diluted with identical medium conditioned by C6 glioma cells 2 days on a confluent monolayer (1:1), and NGF (Nerve Growth Factor) was added to adjust 200 ng/ml as final concentration. After the cells were grown 2 days in medium where cytosine arabinoside (Ara-C, 100 μM) was added to kill dividing nonneuronal cells, medium was changed to one without Ara-C. The resuspended cells were plated at a density of 1500-2000 neurons/well onto Terasaki plates previously coated with 10 μg/ml poly-D-ornithine.
2) ^45Ca Influx Experiments
DRG nerve cells from the primary culture of 2 days were equilibrated by washing 4 times with HEPES (10 mM, pH 7.4)-buffered Ca^2+, Mg^2+-free HBSS (H-HBSS). The solution in each well was removed from the individual well. Medium containing the test compound plus capsaicin (final concentration 0.5 μM) and ^45Ca (final concentration 10 μCi/ml) in H-HBSS was added to each well and incubated at room temperature for 10 mins. Terasaki plates were washed five times with H-HBSS and dried at room temperature. To each well, 0.3% SDS (10 μl) was added to elute ^45Ca. After the addition of scintillation cocktail of into each well, the amount of ^45Ca influx into neuron was measured by counting radioactivity.

T1 sequence (O35433 whole entry): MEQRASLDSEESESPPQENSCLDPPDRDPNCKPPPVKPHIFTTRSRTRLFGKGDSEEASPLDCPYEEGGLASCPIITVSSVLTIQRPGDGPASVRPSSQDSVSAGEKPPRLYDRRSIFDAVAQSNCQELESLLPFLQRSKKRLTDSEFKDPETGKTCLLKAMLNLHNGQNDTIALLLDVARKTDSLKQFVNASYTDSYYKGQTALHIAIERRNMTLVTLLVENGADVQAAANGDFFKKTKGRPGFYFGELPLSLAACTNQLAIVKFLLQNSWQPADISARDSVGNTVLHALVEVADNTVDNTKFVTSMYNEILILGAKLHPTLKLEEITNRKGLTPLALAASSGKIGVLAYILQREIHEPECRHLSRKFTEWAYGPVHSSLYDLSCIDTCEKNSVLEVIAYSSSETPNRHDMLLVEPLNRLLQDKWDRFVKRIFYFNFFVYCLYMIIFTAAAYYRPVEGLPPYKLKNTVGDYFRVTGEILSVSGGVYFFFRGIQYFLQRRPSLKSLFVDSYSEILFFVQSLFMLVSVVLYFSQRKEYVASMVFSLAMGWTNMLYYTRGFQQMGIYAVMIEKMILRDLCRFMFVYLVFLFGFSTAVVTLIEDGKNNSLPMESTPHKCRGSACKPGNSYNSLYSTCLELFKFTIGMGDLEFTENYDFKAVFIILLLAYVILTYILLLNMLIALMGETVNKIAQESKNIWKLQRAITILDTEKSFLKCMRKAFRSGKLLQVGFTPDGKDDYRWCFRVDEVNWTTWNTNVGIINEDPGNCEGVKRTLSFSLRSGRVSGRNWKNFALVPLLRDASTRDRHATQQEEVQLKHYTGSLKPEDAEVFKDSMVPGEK

Row | Compound | IC50
1 | 2-(2-piperid-1-yl-6-chloro-pyridinyl-3-yloxy)-N-(3-fluoro-4-methanesulfonylamino-benzyl)-acetamide [Example 13] | 3500 nM
2 | C#Cc1cc(CNC(=O)/C=C/c2ccc(C(F)(F)F)nc2N2CCC[C@H]2CO)cc(F)c1NS(C)(=O)=O (stereo in doubt) [Example 83, N-(3-Ethynyl-5-fluoro-4-methansulfonylamino-benzyl)-3-[2-(2-hydroxymethyl-pyrrolidin-1-yl)-6-trifluoromethyl-pyridin-3-yl]-acrylamide] | 2100 nM
3 | C#Cc1cc(CNC(=O)/C=C/c2ccc(C(C)(C)C)nc2)cc(F)c1NS(C)(=O)=O [Example 3, 3-(6-tert-Butyl-pyridin-3-yl)-N-(3-ethynyl-5-fluoro-4-methanesulfonylamino-benzyl)-acrylamide] | 520 nM
4 | CS(=O)(=O)Nc1ccc(CNC(=O)/C=C/c2ccc(C(F)(F)F)nc2N2CCOCC2)cc1F [Example 5, N-(3-Fluoro-4-methanesulfonylamino-benzyl)-3-(2-morpholin-4-yl-6-trifluoromethyl-pyridin-3-yl)-acrylamide] | 1500 nM
5 | C=Cc1cc(CNC(=O)/C=C/c2ccc(C(F)(F)F)nc2N2CCOCC2)ccc1NS(C)(=O)=O [Example 6, N-(4-Methanesulfonylamino-3-vinyl-benzyl)-3-(2-morpholin-4-yl-6-trifluoromethyl-pyridin-3-yl)-acrylamide] | 300 nM
6 | Cc1cc(CNC(=O)/C=C/c2ccc(C(F)(F)F)nc2N2CCOCC2)cc(F)c1NS(C)(=O)=O [Example 8, N-(3-Fluoro-4-methanesulfonylamino-5-methyl-benzyl)-3-(2-morpholin-4-yl-6-trifluoromethyl-pyridin-3-yl)-acrylamide] | 420 nM
7 | C=Cc1cc(CNC(=O)/C=C/c2ccc(C(C)(C)C)nc2)cc(F)c1NS(C)(=O)=O [Example 10, 3-(6-tert-Butyl-pyridin-3-yl)-N-(3-fluoro-4-methanesulfonylamino-5-vinyl-benzyl)-acrylamide] | 280 nM
8 | C#Cc1cc(CNC(=O)/C=C/c2ccc(C(C)(C)C)nc2OC)cc(F)c1NS(C)(=O)=O [Example 11, 3-(6-tert-Butyl-2-methoxy-pyridin-3-yl)-N-(3-ethynyl-5-fluoro-4-methanesulfonylamino-benzyl)-acrylamide] | 290 nM
9 | C#Cc1cc(CNC(=O)/C=C/c2ccc(Cl)nc2)cc(F)c1NS(C)(=O)=O [Example 14, 3-(6-Chloro-pyridin-3-yl)-N-(3-ethynyl-5-fluoro-4-methanesulfonylamino-benzyl)-acrylamide] | > 10000 nM
10 | C#Cc1cc(CNC(=O)/C=C/c2ccc(Br)nc2)cc(F)c1NS(C)(=O)=O [Example 15, 3-(6-Bromo-pyridin-3-yl)-N-(3-ethynyl-5-fluoro-4-methanesulfonylamino-benzyl)-acrylamide] | 5900 nM
11 | CC(C)(C)c1cc(C(F)(F)F)c(/C=C/C(=O)NCc2ccc(NS(C)(=O)=O)c(F)c2)cn1 [Example 17, 3-(6-tert-Butyl-4-trifluoromethyl-pyridin-3-yl)-N-(3-fluoro-4-methanesulfonylamino-benzyl)-acrylamide] | 570 nM
12 | C#Cc1cc(CNC(=O)/C=C/c2cnc(C(C)(C)C)cc2C(F)(F)F)cc(F)c1NS(C)(=O)=O [Example 18, 3-(6-tert-Butyl-4-trifluoromethyl-pyridin-3-yl)-N-(3-ethynyl-5-fluoro-4-methanesulfonylamino-benzyl)-acrylamide] | 130 nM
13 | CS(=O)(=O)Nc1ccc(CNC(=O)/C=C/c2ccc(N3CCCCC3)nc2)cc1F [Example 19, N-(3-Fluoro-4-methanesulfonylamino-benzyl)-3-(6-piperid-1-yl-pyridinyl-3-yl)-acrylamide] | > 10000 nM
14 | CS(=O)(=O)Nc1ccc(CNC(=O)/C=C/c2ccc(Br)nc2)cc1F [Example 20, 3-(6-Bromo-pyridin-3-yl)-N-(3-fluoro-4-methanesulfonylamino-benzyl)-acrylamide] | > 10000 nM
15 | CS(=O)(=O)Nc1c(F)cc(CNC(=O)/C=C/c2ccc(C(F)(F)F)nc2N2CCOCC2)cc1F [Example 21, N-(3,5-Difluoro-4-methanesulfonylamino-benzyl)-3-(2-morpholin-4-yl-6-trifluoromethyl-pyridin-3-yl)-acrylamide] | 1100 nM
16 | C#Cc1cc(CNC(=O)/C=C/c2ccc(C(F)(F)F)nc2N2CCCCC2)cc(F)c1NS(C)(=O)=O [Example 24, N-(3-Ethynyl-5-fluoro-4-methanesulfonylamino-benzyl)-3-(2-piperid-1-yl-6-trifluoromethyl-pyridinyl-3-yl)-acrylamide] | 340 nM
17 | CS(=O)(=O)Nc1ccc(CNC(=O)/C=C/c2ccc(N3CCCC3)nc2)cc1F [Example 25, N-(3-Fluoro-4-methanesulfonylamino-benzyl)-3-(6-pyrrolidin-1-yl-pyridin-3-yl)-acrylamide] | > 10000 nM
18 | CS(=O)(=O)Nc1ccc(CNC(=O)/C=C/c2ccc(C(F)(F)F)nc2N2CCCCC2)cc1F [Example 26, N-(3-Fluoro-4-methanesulfonylamino-benzyl)-3-(2-piperid-1-yl-6-trifluoromethyl-pyridinyl-3-yl)-acrylamide] | 1100 nM
19 | CC(C)(C)c1ccc(OCC(=O)NCc2ccc(NS(C)(=O)=O)c(F)c2)cn1 [Example 29, 2-(6-tert-Butyl-pyridin-3-yloxy)-N-(3-fluoro-4-methanesulfonylamino-benzyl)-acetamide] | > 10000 nM
20 | CC(C)(C)c1ccc(OCC(=O)NCc2ccc(NS(C)(=O)=O)c(F)c2)c(Cl)n1 [Example 30, 2-(6-tert-Butyl-2-chloro-pyridin-3-yloxy)-N-(3-fluoro-4-methanesulfonylamino-benzyl)-acetamide] | 3800 nM
21 | Cc1ccc(OCC(=O)NCc2ccc(NS(C)(=O)=O)c(F)c2)c(CO)n1 [Example 31, N-(3-Fluoro-4-methanesulfonylamino-benzyl)-2-(2-hydroxymethyl-6-methyl-pyridin-3-yloxy)-acetamide] | > 10000 nM
22 | CS(=O)(=O)Nc1ccc(CNC(=O)COc2ccc(C(F)(F)F)nc2)cc1F [Example 32, N-(3-Fluoro-4-methanesulfonylamino-benzyl)-2-(6-trifluoromethyl-pyridin-3-yloxy)-acetamide] | > 10000 nM
23 | C#Cc1cc(CNC(=O)COc2ccc(Cl)nc2)cc(F)c1NS(C)(=O)=O [Example 35, 2-(6-Chloro-pyridin-3-yloxy)-N-(3-ethynyl-5-fluoro-4-methanesulfonylamino-benzyl)-acetamide] | > 10000 nM
24 | CC(C)(C)c1ccc(/C=C/C(=O)NCc2ccc(NS(C)(=O)=O)c(F)c2)c(Br)n1 [Example 36, 3-(2-Bromo-6-tert-butyl-pyridin-3-yl)-N-(3-fluoro-4-methanesulfonylamino-benzyl)-acrylamide] | 180 nM
25 | C#Cc1cc(CNC(=O)/C=C/c2ccc(C(C)(C)C)nc2Br)cc(F)c1NS(C)(=O)=O [Example 37, 3-(2-Bromo-6-tert-butyl-pyridin-3-yl)-N-(3-ethynyl-5-fluoro-4-methanesulfonylamino-benzyl)-acrylamide] | 59 nM
26 | C#Cc1cc(CNC(=O)/C=C/c2ccc(C(F)(F)F)nc2N(CC)CC)cc(F)c1NS(C)(=O)=O [Example 38, 3-(2-Diethylamino-6-trifluoromethyl-pyridin-3-yl)-N-(3-ethynyl-5-fluoro-4-methanesulfonylamino-benzyl)-acrylamide] | 220 nM
